Assay results reported in publication PMC9322052, “Synthesis and Biological Activity Screening of Newly Synthesized Trimethoxyphenyl-Based Analogues as Potential Anticancer Agents” (Molecules, 2022).

Experiments:
[1] = system: hepatocellular carcinoma HepG2 cell line; experiment: MTT cytotoxicity assay, HepG2; assay type: cell-based, human; details: Homo sapiens, HepG2, 24 h treatment, mean ± SE
Description: (§1) All the newly synthesized analogs were evaluated for their in vitro cytotoxicity against the hepatocellular carcinoma HepG2 cell line. Podo was utilized as a reference control in the current study. […] The N-phenyl triazinone derivative 9 was further investigated for its cytotoxic effects against normal liver cell line HL-7702.
(§2) MTT colorimetric assay was carried out to investigate the impact of the newly synthesized compounds 2–11 on hepatocellular carcinoma (HepG2) and normal liver cell line (HL-7702) cell lines. See Section 3.3.1 in Supplementary Material.
(§3) 3.3.1. Cytotoxic activity evaluation
To measure the cytotoxic activity of the synthesized derivatives 2a-11 in hepatocel-lular carcinoma (HepG2) cell line (ATCC Cat No. HB-8065) as well as normal human liver cell line HL-7702 (ATCC Cat. No. 77402), cell viability assay was assessed using MTT assay method. Cells at density of 1 x 104 were seeded in a 96-well plate at 37 °C for 24 h under 5% CO2. After incubation, the cells were treated with different concentrations of the test compounds 2a-11 and incubated for 24 h, then 20 μl of MTT solution at 5 mg/mL was applied and incubated for 4 h at 37 °C. Dimethyl sulphoxide (DMSO) in volume of 100 µl was added to each well to dissolve the purple formazan that had formed. The color inten-sity of the formazan product, which represents the growth condition of the cells, is quan-tified by using an ELISA plate reader (EXL 800, USA) at 570 nm absorbance. The experi-mental conditions were carried out with at least three replicates, and the experiments were repeated at least three times.
3.3.2. Tubulin inhibitions Assay
(§4) Compounds 9, 10 and 11 were evaluated for their tubulin inhibitory activity levels according to the manufacturer’s instructions using # abcam Human Beta-tubulin simplestep […]
3.3.3. Cell cycle analysis of compound 9
Cell cycle analysis in HepG2 cells was investigated using fluorescent Annexin V-FITC/ PI detection kit (BioVision EZCellTM Cell Cycle Analysis Kit Catalog #K920) by flow cytometry assay. HepG2 cells at a density of 2 × 10^5 per well were harvested and washed twice in PBS. After that, the cells were incubated at 37 °C and 5% CO2. […] Afterward, medium was stained with DNA flu-orochrome PI for 15 min at 37 °C. The samples were immediately analyzed using Facs Calibur flow cytometer (Becton and Dickinson, Heidelberg, Germany).
3.3.4. Apoptosis assay for compound 9
Apoptosis in HepG2 cells was investigated using fluorescent Annexin V-FITC/ PI de-tection kit (BioVision Annexin V-FITC Apoptosis Detection Kit, Catalog #: K101) by flow cy-tometry assay. HepG2 cells at a density of 2 × 10^5 per well were treated with compound 9 at its IC50 (μM) for 48 h, then the cells were harvested and stained with Annexin V-FITC/ PI dye for 15 min in the dark at 37 °C. The samples were immediately analyzed using FACS Calibur flow cytometer (Becton and Dickinson, Heidelberg, Germany).
3.3.5. Measurement of mitochondrial membrane potential (MMP) for compound 9 MMP was measured by FACS analysis using abcam ab113852TMRE Mitochondrial Membrane Potential Assay Kit with DiOC2(3) staining using MitoProbe™ DiOC2(3) Assay Kit for Flow Cytometry (M34150). After treatment with compound 9 at its IC50 concentra-tion, cells were stained with DiOC2(3) dye for 30 min in the incubator, then harvested and washed with PBS. DiOC2(3)-stained cells were represented with Annexin binding buffer and incubated at 37 °C for 15 min. The samples were immediately analyzed using cell […]
3.3.6. Effect on p53, Bax and Bcl-2 p53, Bax and Bcl2 enzyme activities in HepG2 cells were detected in the presence of com-pound 9 at its IC50 concentration (μM). The levels of the tumor suppressor gene p53, apoptotic markers Bax as well as the anti-apoptotic marker Bcl-2 were assessed using p53 ELISA kit, Human Bax ELISA kit and Bcl-2 Elisa kit. […]

[2] = system: normal liver cell line HL-7702; experiment: MTT cytotoxicity assay, normal liver cells; assay type: cell-based; details: Homo sapiens, L02, 24 h treatment, mean ± SE
Description: as §1, §2, §3
To measure the cytotoxic activity of the synthesized derivatives 2a-11 in hepatocel-lular carcinoma (HepG2) cell line (ATCC Cat No. HB-8065) as well as normal human liver cell line HL-7702 (ATCC Cat. No. 77402), cell viability assay was assessed using MTT assay method. Cells at density of 1 x 104 were seeded in a 96-well plate at 37 °C for 24 h under 5% CO2. […] The color inten-sity of the formazan product, which represents the growth condition of the cells, is quan-tified by using an ELISA plate reader (EXL 800, USA) at 570 nm absorbance. […]
as §4
3.3.5. […] The samples were immediately analyzed using cell […]

β-tubulin = experiment: Tubulin polymerization inhibition (beta-tubulin ELISA in HepG2 cells); assay type: cell-based, human
Description: The selected candidates were tested at a concentration equal to their IC50 concentration dose value. […] See Section 3.3.2 in Supplementary Material. […] page 18: 3.3. Biological studies 3.3.1. Cytotoxic activity evaluation To measure the cytotoxic activity of the synthesized derivatives 2a-11 in hepatocel- lular carcinoma (HepG2) cell line (ATCC Cat No. HB-8065) as well as normal human liver cell line HL-7702 (ATCC Cat. No. 77402), cell viability assay was assessed using MTT assay method. Cells at density of 1 x 104 were seeded in a 96-well plate at 37 °C for 24 h under 5% CO2. After incubation, the cells were treated with different concentrations of the test compounds 2a-11 and incubated for 24 h, then 20 μl of MTT solution at 5 mg/mL was […] Dimethyl sulphoxide (DMSO) in volume of 100 μl was added to each well to dissolve the purple formazan that had formed. The color […] of the formazan product, which represents the growth condition of the cells, is quan- […] by using an ELISA plate reader (EXL 800, USA) at 570 nm absorbance. The experi- mental conditions were carried out with at least three replicates, and the experiments were repeated at least three times. 3.3.2. Tubulin inhibitions Assay […] according to the manufacturer's instructions using # abcam Human Beta-tubulin […] ELISA Kit ab245722. 3.3.3. Cell cycle analysis of compound 9 Cell cycle analysis in HepG2 cells was investigated using fluorescent Annexin V- FITC/ PI detection kit (BioVision EZCellTM Cell Cycle Analysis Kit Catalog #K920) by flow cytometry assay. […] twice in PBS. After that, the cells were incubated at 37 °C and 5% CO2. […] Apoptosis assay for compound 9 Apoptosis in HepG2 cells was investigated using fluorescent Annexin V-FITC/ PI de- tection kit (BioVision Annexin V-FITC Apoptosis Detection Kit, Catalog #: K101) by flow cy- tometry assay. […] The samples were immediately analyzed using FACS Calibur flow cytometer (Becton and Dickinson, Heidelberg, Germany). 3.3.5. Measurement of mitochondrial membrane potential (MMP) for compound 9 MMP was measured by FACS analysis using abcam ab113852TMRE Mitochondrial Membrane Potential Assay Kit with DiOC2(3) staining using MitoProbeTM DiOC2(3) Assay Kit for Flow Cytometry (M34150). After treatment with compound 9 at its IC50 concentra- tion, cells were stained with DiOC2(3) dye for 30 min in the incubator, then harvested and washed with PBS. […] The samples were immediately analyzed using cell Quest software. […] Effect on p53, Bax and Bcl-2 p53, Bax and Bcl2 enzyme activities in HepG2 cells were detected in the presence of com- pound 9 at its IC50 concentration (μM). The levels of the tumor suppressor gene p53, apoptotic markers Bax as well as the anti-apoptotic marker Bcl-2 were assessed using p53 ELISA kit, Human Bax ELISA kit and Bcl-2 Elisa kit. […]

A-594 cell line = system: A-594 cell line; parameters: method as in doi:10.1016/j.arabjc.2021.103644; details: read-out: IC50, antiproliferative activity; cited from earlier work
EC-109 cell line = system: EC-109 cell line; parameters: method as in doi:10.1016/j.arabjc.2021.103644; details: read-out: IC50, antiproliferative activity; cited from earlier work
PC-3 cell line = system: PC-3 cell line; parameters: method as in doi:10.1016/j.arabjc.2021.103644; details: read-out: IC50, antiproliferative activity; cited from earlier work
HCT-116 cell line = system: HCT-116 cell line; parameters: method as in doi:10.1016/j.arabjc.2021.103644; details: read-out: IC50, antiproliferative activity; cited from earlier work
MGC-803 cell line = system: MGC-803 cell line; parameters: method as in doi:10.1016/j.arabjc.2021.103644; details: read-out: IC50, antiproliferative activity; cited from earlier work
eight cancer cell lines = system: eight cancer cell lines; parameters: method as in PMID 23547728; details: read-out: average IC50 over eight cancer cell lines; cited from earlier work

With `COc1cc([C@@H]2c3cc4c(cc3[C@H](O)[C@H]3COC(=O)[C@H]23)OCO4)cc(OC)c1OC` [podo, podophyllotoxin, reference compound] the IC50 [1] was 2.08 ± 0.04 µM, the IC50 [2] was 18.6 ± 0.58 µM and the “β-tubulin polymerization inhibition percentage” value (β-tubulin) was 91.32%.

For `COc1cc(Nc2nc(Cc3ccc(C(=O)/C=C/c4ccccn4)cc3)nnc2Cl)cc(OC)c1OC` [V], the IC50 (A-594 cell line) is listed as 520 nM, the IC50 (EC-109 cell line) is listed as 780 nM and the IC50 (PC-3 cell line) is listed as 610 nM. For the same compound, the IC50 (HCT-116 cell line) was 430 nM and the IC50 (MGC-803 cell line) was 410 nM.

For `COc1cc(C(=O)c2nc(-c3ccccc3)c[nH]2)cc(OC)c1OC` [RABI-112], the IC50 (eight cancer cell lines) is listed as 14 nM.
